Measured values from patent US20260317340A1, “COMPOUNDS, COMPOSITIONS, AND METHODS OF TREATING DISORDERS” (Chengdu Anticancer Bioscience, Ltd., priority 2023, published 2026).
Like-named read-outs stand apart in the source and are kept apart here.

Columns and labels:
[1] = tested on: RPE-Neo or RPE-MYC or RPE-MYC expressing an EGFP-Histone 2B fusion protein; test: Phenotypic screening assay: arrest in mitosis, change in DNA content (polyploidy), cell death; type: cell-based; conditions: 20 nM to 20 μM, 24, 48 or 72 hours
In short: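 RPE-Neo, RPE-MYC or RPE-MYC EGFP-H2B cells plated 18-24 h before treatment with compounds at 20 nM to 20 μM. Mitotic arrest or DNA-content change scored by automated imaging at 24, 48 or 72 h; proliferation by MTT. Values binned into A–D ranges.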

RPE-Neo or RPE-MYC cells = test: MTT assay of cellular proliferation (proliferative arrest); type: cell-based; conditions: read-out: Min. Effective conc. for Proliferative arrest (>50%)
[2] = Tumor growth inhibition, CT26 allograft in BAL B/c mice; type: in vivo, mouse tumor cell line in BAL B/c mice; conditions: oral, 20 days, 30% PEG300
Procedure: (§1) Six- to seven-week-old female BAL B/c nude mice were used in the human cancer cell line NCI-H460, which was derived from a lung cancer patient. Six- to seven-week-old female BAL B/c mice were used in the mouse […] cell line CT26 allograft models. 100 μL cell suspensions containing one million cells with […] (Corning, Cat. No. 354254) were implanted subcutaneously into the right flank of mice. Mice were monitored daily for well-being and weighed twice weekly. Caliper measurements of tumor sizes began when tumors became visible. Tumor volume (TV) was calculated by measuring two perpendicular diameters using the following formula: (L×W2)/2 in which L and W refer to the length and width of a tumor, respectively. When tumors reached an average size of 100 mm3, mice were first ranked according to tumor size and divided into “n” cohorts with X mice in each cohort. Each cohort was then sorted into 1 to X groups according to the random numbers size order generated by the RAND 0)function in Excel. In this way, the mice were randomized into X groups (n=4-6). Then the mice were orally administrated with vehicle (30% PEG 300) or indicated compounds at a dose volume of 5 mL/kg in a double-blinded manner. Oral administration was chosen because this is the intended route of use in the clinic. In all cases, no tumor measurement data or animals were excluded from the data analysis. Percentage of tumor growth inhibition (TGI) was calculated using the following formula: % TGI=average 100×[1−(final TV−initial TV of treatment group)/(final TV−initial TV of control group)]. As set forth in table 3 below, an values of greater than or equal to 35% and less than or equal to 45% […] is marked “C”; a value greater than 45% and less than or equal to 55% is marked “B”; a value greater than 55% and less than or equal to 70% is marked “A”; and […]

[3] = tested on: human cancer cell line NCI-H460; test: Tumor growth inhibition, NCI-H460 tumors in BAL B/c nude mice; type: in vivo, human tumor cell line in BAL B/c nude mice; conditions: oral, 4 days-on, 3 days-off, 30% PEG300
Procedure: as §1

[4] = read-out: Min. Effective conc. for Along with Cell Death
[5] = ≥5%, read-out: Min. Effective conc. for Mitotic Arrest (≥5%)
[6] = ≥5%, read-out: Min. Effective conc. for Polyploidy (≥5%)

Structure (SMILES)	minimal effective concentration [1, 4]	minimal effective concentration [1, 5]	minimal effective concentration [1, 6]	minimal effective concentration (RPE-Neo or RPE-MYC cells)	also measured
COc1ccc(CN2C(=O)CC(c3ncc(C)o3)=Cc3ccc(-c4cnn(CC(C)(C)O)c4)cc32)cc1 [Compound 37, 8-(1-(2-hydroxy-2-methylpropyl)-1H-pyrazol-4-yl)-1-(4-methoxybenzyl)-4-(5-methyloxazol-2-yl)-1,3-dihydro-2H-benzo[b]azepin-2-one]	0.001 to 1 µM	0.001 to 1 µM	0.001 to 1 µM	0.001 to 1 µM	TGI % ([2]; 8 mg/kg, 3 days-on, 4 days-off): B (greater than 45% and less than or equal to 55%); TGI % ([3]; 8 mg/kg, 20 days): A (greater than 55% and less than or equal to 70%)
COc1ccc(CN2C(=O)CC(c3ncc(C)o3)=Cc3ccc(-c4cnn(CCN5CCOCC5)c4)cc32)cc1 [Compound 38, 1-(4-methoxybenzyl)-4-(5-methyloxazol-2-yl)-8-(1-(2-morpholinoethyl)-1H-pyrazol-4-yl)-1,3-dihydro-2H-benzo[b]azepin-2-one]	0.001 to 1 µM	0.001 to 1 µM	0.001 to 1 µM	0.001 to 1 µM	TGI % ([3]; 36 mg/kg, 20 days): B (greater than 45% and less than or equal to 55%)
COc1ccc(CN2C(=O)CC(c3ncc(C)o3)=Cc3ccc(-c4ccc(N)nc4)cc32)cc1 [Compound 42, 8-(6-aminopyridin-3-yl)-1-(4-methoxybenzyl)-4-(5-methyloxazol-2-yl)-1,3-dihydro-2H-benzo[b]azepin-2-one]	0.001 to 1 µM	0.001 to 1 µM	0.001 to 1 µM	0.001 to 1 µM	TGI % ([3]; 36 mg/kg, 13 days): C (greater than or equal to 35% and less than or equal to 45% μM)
COc1ccc(CN2C(=O)CC(c3ncc(C)o3)=Cc3ccc(-c4ccc(=O)n(C)c4)cc32)cc1 [Compound 45, 1-(4-methoxybenzyl)-8-(1-methyl-6-oxo-1,6-dihydropyridin-3-yl)-4-(5-methyloxazol-2-yl)-1,3-dihydro-2H-benzo[b]azepin-2-one]	0.001 to 1 µM	0.001 to 1 µM	0.001 to 1 µM	0.001 to 1 µM	TGI % ([3]; 36 mg/kg, 20 days): A (greater than 55% and less than or equal to 70%)
COCCn1cc(-c2ccc3c(c2)N(Cc2ccc(OC)cc2)C(=O)CC(c2ncc(C)o2)=C3)cn1 [Compound 51, 1-(4-methoxybenzyl)-8-(1-(2-methoxyethyl)-1H-pyrazol-4-yl)-4-(5-methyloxazol-2-yl)-1,3-dihydro-2H-benzo[b]azepin-2-one]	0.001 to 1 µM	0.001 to 1 µM	0.001 to 1 µM	0.001 to 1 µM	TGI % ([3]; 15 mg/kg, 29 days): A (greater than 55% and less than or equal to 70%)
COc1ccc(CN2C(=O)CC(c3ncc(C)o3)=Cc3ccc(-c4cnn(CC5CC5)c4)cc32)cc1 [Compound 53, 8-(1-(cyclopropylmethyl)-1H-pyrazol-4-yl)-1-(4-methoxybenzyl)-4-(5-methyloxazol-2-yl)-1,3-dihydro-2H-benzo[b]azepin-2-one]	0.001 to 1 µM	0.001 to 1 µM	0.001 to 1 µM	0.001 to 1 µM	TGI % ([3]; 40 mg/kg, 20 days): C (greater than or equal to 35% and less than or equal to 45% μM)
COc1ccc(CN2C(=O)CC(c3ncc(C)o3)=Cc3ccc(-c4cnn(C5COC5)c4)cc32)cc1 [Compound 54, 1-(4-Methoxybenzyl)-4-(5-methyloxazol-2-yl)-8-(1-(oxetan-3-yl)-1H-pyrazol-4-yl)-1,3-dihydro-2H-benzo[b]azepin-2-one]	0.001 to 1 µM	0.001 to 1 µM	0.001 to 1 µM	0.001 to 1 µM	TGI % ([3]; 50 mg/kg, 20 days): C (greater than or equal to 35% and less than or equal to 45% μM)
COCCCn1cc(-c2ccc3c(c2)N(Cc2ccc(OC)cc2)C(=O)CC(c2ncc(C)o2)=C3)cn1 [Compound 57, 1-(4-Methoxybenzyl)-8-(1-(3-methoxypropyl)-1H-pyrazol-4-yl)-4-(5-methyloxazol-2-yl)-1,3-dihydro-2H-benzo[b]azepin-2-one]	0.001 to 1 µM	0.001 to 1 µM	0.001 to 1 µM	0.001 to 1 µM	TGI % ([3]; 80 mg/kg, 20 days): A (greater than 55% and less than or equal to 70%)
COc1ccc(CN2C(=O)CC(c3ncc(C)o3)=Cc3ccc(-c4cnn(CC(C)O)c4)cc32)cc1 (centres unmarked) [Compound 61, 8-(1-(2-hydroxypropyl)-1H-pyrazol-4-yl)-1-(4-methoxybenzyl)-4-(5-methyloxazol-2-yl)-1,3-dihydro-2H-benzo[b]azepin-2-one]	0.001 to 1 µM	0.001 to 1 µM	0.001 to 1 µM	0.001 to 1 µM	TGI % ([2]; 10 mg/kg, 4 days-on, 3 days-off): A (greater than 55% and less than or equal to 70%)
COc1ccc(CN2C(=O)CC(c3nnc(C4CC4)o3)=Cc3ccc(-c4cnn(CC(C)(C)O)c4)cc32)cc1 [Compound 94, 4-(5-Cyclopropyl-1,3,4-oxadiazol-2-yl)-8-(1-(2-hydroxy-2-methylpropyl)-1H-pyrazol-4-yl)-1-(4-methoxybenzyl)-1,3-dihydro-2H-benzo[b]azepin-2-one]	0.001 to 1 µM	0.001 to 1 µM	0.001 to 1 µM	0.001 to 1 µM	TGI % ([2]; 8 mg/kg, 4 days-on, 3 days-off): B (greater than 45% and less than or equal to 55%)
COc1ccc(CN2C(=O)CC(c3cnco3)=Cc3ccc(-c4cnn(CC(C)(C)O)c4)cc32)cc1 [Compound 96, 8-(1-(2-Hydroxy-2-methylpropyl)-1H-pyrazol-4-yl)-1-(4-methoxybenzyl)-4-(oxazol-5-yl)-1,3-dihydro-2H-benzo[b]azepin-2-one]	0.001 to 1 µM	0.001 to 1 µM	0.001 to 1 µM	0.001 to 1 µM	TGI % ([2]; 20 mg/kg, 4 days-on, 3 days-off): A (greater than 55% and less than or equal to 70%)
